In US20120151612A1, “NON-SURGICAL APPROACH TO PREVENT AND CORRECT CRANIOFACIAL MALFORMATIONS DURING DEVELOPMENT” (UNIVERSITY OF SOUTHERN CALIFORNIA, priority 2010, published 2012):
“Also recorded” adds a separate entry of the source.

Columns and labels:
p38 MAPK [1] = assay: Immunoblot of p38 MAPK and 14-3-3ζ/δ phosphorylation in primary MEPM cells; format: cell-based, mice; conditions: Tgfbr2^fl/fl; Wnt1-Cre MEPM cells, 10 μM for 24 hours
Protocol: (§1) Primary MEPM cells. Primary MEPM cells were obtained from E13.5 embryos. Briefly, palatal shelves were dissected at E13.5, and trypsinized for 30 minutes at 37° C. in a CO2 incubator. After pipetting thoroughly, cells were cultured in Dulbecco's modified Eagle's medium containing 10% fetal bovine serum supplemented with penicillin, streptomycin, L-glutamate, sodium pyruvate, and nonessential amino acids.

[2] = system: Tgfbr2^fl/fl; Wnt1-Cre palate; assay: Palatal shelf organ culture, BrdU-labeled nuclei (Example 2); format: cell-based, mice; conditions: ex vivo organ culture, 100 μM, 24 hours
Protocol: (§2) Histological examination. Hematoxylin and eosin staining and BrdU staining were performed as described previously. Immunohistochernical staining was performed as described previously. Antibodies used for immunohistochemistry were anti-β-spectrin rabbit polyclonal, and anti-Tgf-βRIII mouse monoclonal antibodies (Santa Cruz Biotechnology), anti-Tgf-β2 mouse monoclonal, and anti-14-3-3ζ/δ rabbit polyclonal antibodies (Abeam). Fluorescence images were obtained using a fluorescence microscope (Model IX71, Olympus).
Palatal shelf organ culture. Time-pregnant mice were sacrificed at E13.5. Genotyping was carried out as described above. The palatal shelves were microdissected and cultures in serum-less chemically defined medium as previously described. After 24 hours in culture treated with p38 MAPK inhibitor SB203580 (100 μM), and neutralizing antibody for Tgf-β2 (2 μg/ml) or Tgf-βRIII (2 μg/ml), palates were harvested, fixed in 4% paraformaldehyde/0.1 M phosphate buffer (pH 7.4) and processed.

[3] = system: Tgfbr2^fl/fl; Wnt1-Cre MEPM cells; assay: Lipid droplet accumulation (Oil Red O staining) in primary MEPM cells; format: cell-based, mice
Protocol: Histological examination. Cryosections were stained with Oil Red O to detect lipid production. Prepared sections were washed three times in phosphate buffer saline (PBS) (each wash 5 min) and fixed in 4% formaldehyde in 0.1 M phosphate buffer for 1 h at room temperature. Sections were then incubated for 15 min in 60% isopropanol and stained for 15 min with a filtered solution of three parts of Oil Red O (saturated in isopropanol) and two parts of ddH2O. For the next step, slides were briefly rinsed in 60% isopropanol and washed thoroughly in ddH2O. Cells were counterstained in Mayers Hematoxylin Solution.
as §1

MEPM cells = assay: Pulse-chase analysis of lipid droplet formation; format: cell-based, mice
Protocol: Pulse-chase analysis of lipid droplet formation. Chemical inducers, oleic acid for lipogenesis and isoproterenol for lipolysis, were added into culture medium to analyze lipid droplet formation. The number of lipid droplets per cell was counted. Oleic acid was added to the medium at 100 μM for 0, 60, and 120 min, and then washed out and changed to the medium with 100 μM isoproterenol for 10 and 30 min. Twenty cells were counted at each time point.

[4] = system: angiotensin-mediated Tgf-β signaling; conditions: patients of Marfan syndrome; cited from earlier work
[5] = system: Tgfbr2^fl/fl; Wnt1-Cre mice; assay: Rescue of cleft palate in Tgfbr2^fl/fl; Wnt1-Cre embryos after feeding telmisartan to pregnant females; format: in vivo; conditions: for cleft palate (in words): Tgfbr2 mutant mice, treatment of pregnant mice
Protocol: (§3) Animals. To generate Tgfbr2^fl/fl; Wnt1-Cre mice, we mated Tgfbr2^fl/+; Wnt1-Cre with Tgfbr2^fl/fl mice. To generate Tgfbr2^fl/fl; Wnt1-Cre; Tgfb2^+/− mice, we mated Tgfbr2^fl/+; Wnt1-Cre; Tgfb2^+/− with Tgfbr2^fl/fl mice. To generate Tgfbr2^fl/fl; Wnt1-Cre; Alk5^fl/+ mice, we mated Tgfbr2^fl/+; Wnt1-Cre; Alk5^fl/fl with Tgfbr2^fl/fl; Alk5^fl/fl mice. Genotyping was performed using PCR primers as described previously^28, 29. Female Tgfbr2^fl/fl mice, which underwent timed matings with Tgfbr2^fl/+; Wnt1-Cre male mice, were treated with oral telmisartan (0.5 mg in 25 μl dimethyl sulfoxide per day by a feeding tube) or vehicle (25 μl dimethl sulfoxide by a feeding tube) from 0.5 day post-coitum (E0.5). Therapy was continued throughout pregnancy.

p38 MAPK [6] = assay: Immunoblotting of p38 MAPK activity in mice after telmisartan treatment; format: in vivo; conditions: Tgfbr2^fl/fl; Wnt1-Cre mice after telmisartan treatment
Protocol: Animals. To generate Tgfbr2^fl/fl; Wnt1-Cre mice, we mated Tgfbr2^fl/+; Wnt1-Cre with Tgfbr2^fl/fl mice. To generate Tgfbr2^fl/fl; Wnt1-Cre; Tgfb2^+/- mice, we mated Tgfbr2^fl/+; Wnt1-Cre; Tgfb2^+/- with Tgfbr2^fl/fl mice. To generate Tgfbr2^fl/fl; Wnt1-Cre; Alk5^fl/+ mice, we mated Tgfbr2^fl/+; Wnt1-Cre; Alk5^fl/fl with Tgfbr2^fl/fl; Alk5^fl/fl mice. Genotyping was performed using PCR primers as described previously^28, 29. Female Tgfbr2^fl/fl mice, which underwent timed matings with Tgfbr2^fl/+; Wnt1-Cre male mice, were treated with oral telmisartan (0.5 mg in 25 μl dimethyl sulfoxide per day by a feeding tube) or vehicle (25 μ[…] sulfoxide by a feeding tube) from 0.5 day post-coitum (E0.5). Therapy was continued throughout pregnancy. Immunological analysis. Immunoblots were performed as described previously. Antibodies used for immunoblotting were as follows: rabbit polyclonal antibodies against p38, JNK, and phospho-JNK (Cell Signaling Technology), 14-3-3ζ/δ, Smad2/3, […] (Abeam), phospho-14-3-3 (ABR), 14-3-3ε, and β-spectrin (Santa Cruz Biotechnology); rabbit monoclonal antibodies against phospho-p38, and phospho-Smad2 (Cell Signaling Technology); and mouse monoclonal antibodies against Smad4, and Tgf-βrIII (Santa Cruz Biotechnology), Tgf-β2 (Abeam), and GAPDH (Chemicon). MEPM cells were treated with or without p38 MAPK inhibitor SB203580 at 10 μM for 24 hours.

[7] = system: Tgfbr2^fl/fl; Wnt1-Cre mice; assay: Triacylglycerol level in mice after telmisartan treatment; format: in vivo; conditions: E18.5
Protocol: as §3
Triacylglycerol amount. Triacylglycerol amounts were measured by an enzymatic method using N-ethyl-N-(2-hydroxy-3-sulfopropyl)-3,5-dimethoxyaniline sodium salt according to the manufacturer's instructions (Wako). Data is expressed as mg per 100 mg protein.

[8] = system: Tgfbr2^fl/fl and Tgfbr2^fl/fl; Wnt1-Cre embryos; assay: Histological analyses of embryo organs (heart, kidney, liver) after feeding telmisartan to pregnant females; format: in vivo, mice
Protocol: as §3
as §2, with “Immunohistochemical” for “Immunohistochernical”, “anti-Tgf-βrIII” for “anti-Tgf-βRIII”, “anti-14-3-3” for “anti-14-3-3ζ/δ”

[9] = system: palatal mesenchyme of E13.5 palatal explants; assay: Palatal shelf organ culture with bead implantation or antibody, BrdU cell proliferation and fusion (Example 1); format: cell-based, mice
Protocol: Palatal shelf organ cultures and bead implantation. Timed-pregnant mice were sacrificed on postcoital day 13.5 (E13.5). Genotyping was carried out as previously described (Depew et al., 1999; Satokata and Maas, 1994). Paired secondary palatal shelves were microdissected and cultured in serumless, chemically-defined medium as previously described (Ito et al., 2003). For bead implantation, Affi-Gel blue agarose beads (BioRad) were soaked in proteins as previously described (Zhang et al., 2002). […] Shh N-terminal peptide (R & D 7 systems) was used at 1 mg/ml, anti-Shh antibody (Developmental Studies Hybridoma Bank) was used at 0.30 mg/ml, and BSA was used at 10 ng/ml. Neutralizing antibodies to Fgf7 (MAB251) and Mouse IgG1 (MAB002) (R & D Systems) were added to the culture medium at concentrations of 50 μg/ml.
(§4) Apoptosis and cell proliferation. Following treatment with […] proteinase K for 15 minutes at room temperature, apoptotic cells were assayed by the TUNEL procedure using the In Situ Cell Death Detection (fluorescein) kit (Roche Molecular Biochemicals) by following the manufacturer's protocol. Cell proliferation was scored by injection of BrdU (5-bromo-2′-deoxy-uridine, Sigma. 100 μg/g body weight) into pregnant females 1 hour before recovery of embryos. For palatal organ culture, BrdU was supplemented into culture medium at concentration of 100 μM for 2 hours before harvest. […]

[10] = system: MEE of E13.5 wild type palatal shelves; assay: TUNEL apoptosis assay in palatal explants; format: cell-based, mice; conditions: Shh beads vs BSA beads
Protocol: (§5) Palatal shelf organ cultures and bead implantation. Timed-pregnant mice were sacrificed on postcoital day 13.5 (E13.5). Genotyping was carried out as previously described (Depew et al., 1999; Satokata and Maas, 1994). Paired secondary palatal shelves were microdissected and cultured in serumless, chemically-defined medium as previously described (Ito et al., 2003). For bead implantation, Affi-Gel blue agarose beads (BioRad) were soaked in proteins as previously described (Zhang et al., 2002). Tissues were harvested after 24 hours of culture and fixed in 4% paraformaldehyde for processing. Shh N-terminal peptide (R & D 7 systems) was used at 1 mg/ml, anti-Shh antibody (Developmental Studies Hybridoma Bank) was used at 0.30 mg/ml, and BSA was used at 10 ng/ml. Neutralizing antibodies to Fgf7 (MAB251) and Mouse IgG1 (MAB002) (R & D Systems) were added to the culture medium at concentrations of 50 μg/ml.
as §4, with “embryos.” for “embryos. For palatal organ culture, BrdU was supplemented into culture medium at concentration of 100 μM for 2 hours before harvest.”

Fgf7 expression = assay: In situ hybridization of Fgf7 in treated palatal explants; format: cell-based, mice; conditions: Shh beads vs BSA beads
Protocol: as §5
(§6) In situ hybridization. Samples for whole-mount and section in situ hybridization were fixed in freshly made 4% paraformaldehyde/PBS. In situ hybridizations were performed as previously described (Xu et al., 2005). The following cDNAs were used to generate antisense riboprobes: a 1.2 kb fragment of mouse Msx1, a 900 bp mouse Dlx5, a 1.6 kb mouse Gli1, and 640 bp mouse Shh. […]

[11] = system: Shh expression in the palatal epithelium; assay: In situ hybridization of Shh in treated palatal explants; format: cell-based, mice; conditions: Fgf7 beads
Protocol: as §5, §6

C[S+]([O-])c1ccc(-c2nc(-c3ccc(F)cc3)c(-c3ccncc3)[nH]2)cc1 (centres unmarked) [SB203580, 4-[4-(4-fluorophenyl)-2-(4-methylsulfinylphenyl)-1H-imidazol-5-yl]pyridine]
phosphorylation of 14-3-3ζ/δ (p38 MAPK [1]): inhibited
phosphorylation of p38 (Mapk14) (p38 MAPK [1]): inhibited
cell proliferation defect (BrdU-labeled nuclei) [2]: rescued cell proliferation
lipid droplet accumulation [3]: failed to detect lipid droplet accumulation; also recorded: Lipid droplets did not accumulate

CC(C)NCC(O)c1ccc(O)c(O)c1 (centres unmarked) [isoproterenol]
number of lipid droplets (MEPM cells; Tgfbr2^fl/fl MEPM cells, after switch to 100 μM isoproterenol): decreased immediately
lipid droplet number (MEPM cells; Tgfbr2^fl/fl, Wnt1-Cre MEPM cells, after switch to 100 μM isoproterenol): remained high

CCCCc1nc(Cl)c(CO)n1Cc1ccc(-c2ccccc2-c2nn[nH]n2)cc1 [losartan]
enlarged aorta [4]: prevents the enlarged aorta

CCCCCCCC/C=C\CCCCCCCC(=O)O [oleic acid]
number of lipid droplets (MEPM cells; MEPM cells of both Tgfbr2^fl/fl and Tgfbr2^fl/fl, Wnt1-Cre mice, oleic acid 100 μM): increased

CCCc1nc2c(C)cc(-c3nc4ccccc4n3C)cc2n1Cc1ccc(-c2ccccc2C(=O)O)cc1 [telmisartan, 2-(4-{[4-methyl-6-(1-methyl-1H-1,3-benzodiazol-2-yl)-2-propyl-1H-1,3-benzodiazol-1-yl]methyl}phenyl)benzoic acid]
cell proliferation defect ([5]; Tgfbr2^fl/fl, Wnt1-Cre mice following telmisartan treatment): restored cell proliferation defect
cleft palate (in words) [5]: prevents the cleft palate
cleft palate (in words) ([5]; listed as Telmisartan): rescue cleft palate defects
cleft palate rescued, number of Tgfbr2^fl/fl; Wnt1-Cre mice ([5]; oral telmisartan 0.5 mg per day to pregnant females from E0.5): 5/18
up-regulated p38 MAPK activity (p38 MAPK [6]): restored to normal
increased triacylglycerol level [7]: restored to normal
effect on kidney or liver histology ([8]; Tgfbr2^fl/fl and Tgfbr2^fl/fl, Wnt1-Cre embryos): does not appear to affect kidney or liver
heart defect ([8]; Tgfbr2^fl/fl, Wnt1-Cre mice after telmisartan): does not rescue the heart defect
side-effects in other organs ([8]; embryos after telmisartan to pregnant females): without obvious side-effects in other organs

Shh: Shh N-terminal peptide (R & D systems) used at 1 mg/ml, soaked into Affi-Gel blue agarose beads
palatal mesenchyme cell proliferation (BrdU) ([9]; E13.5 wild type palatal explants, Shh beads vs BSA beads): enhanced
palatal fusion of explants ([9]; Shh beads, two days of culture): able to fuse
apoptosis in the MEE (TUNEL) [10]: did not affect apoptosis
Fgf7 expression (Fgf7 expression): repressed

B1: Fgf7: Fgf7 protein on beads placed into E13.5 palatal shelves in vitro (protein)
chain: CNDMSPEQTATSVNCSSPERHTRSYDYMEGGDIRVRRLFCRTQWYLRIDKRGKVKGTQEMKNSYNIMEIRTVAVGIVAIKGVESEYYLAMNKEGKLYAKKECNEDCNFKELILENHYNTYASAKWTHSGGEMFVALNQKGIPVKGKKTKKEQKTAHFLPMAIT
Shh expression in the palatal epithelium ([11]; Dlx5−/− samples): inhibit Shh expression
Shh expression in the palatal epithelium ([11]; E13.5 palatal shelves, one day of culture, compared to BSA): dramatic reduction
